Values quoted from earlier work, collected in patent publication US20150045434A1, “METHIONINE COMPOUND INTENDED FOR ANIMAL FEED” (ROQUETTE FRERES, priority 2011, published 2015).

What was measured:
[1] = at 35° C.

For `CSCC[C@H](N)C(=O)O` [methionine], the “pKa1 (pKa of the acid function of methionine)” value (acid function) is listed as 2.2, the “pKa2 (pKa of the amine function of methionine)” value (amine function) is listed as 9.3 and the solubility of methionine [1] is listed as “about 70 g/l”.
